Laboratory results published in EP4818176A1, “TETRACYCLIC DERIVATIVE INHIBITOR, AND PREPARATION METHOD AND USE THEREFOR” (Shanghai Hansoh Biomedical Co., Ltd., priority 2023, dated 2025).
Read-outs that look alike come from different tables or passages of the source.

Assays:
HCT116 wild-type cells = assay: Cell proliferation inhibition (CellTiter-Glo), HCT116 wild-type cells; format: cell-based
Summary of the method: (§1)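 Cells were grown in McCoy's 5A with 10% FBS, adhered overnight, then exposed to serial compound dilutions for 72-240 h at 37°C, 5% CO2, with a vehicle control. Viability was read as CellTiter-Glo luminescence, and IC50 came from nonlinear regression of inhibition rate against concentration.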

[1] = system: MTAP Knockout HCT116 cells; assay: Cell proliferation inhibition (CellTiter-Glo), HCT116 MTAP knockout cells; format: cell-based; settings: for Selectivity: HCT116 IC50 versus MTAP Knockout HCT116 IC50
Summary of the method: as §1

hERG potassium channel = hERG potassium channel (Homo sapiens, UniProt Q12809); assay: hERG potassium channel inhibitory activity assay (CHO-hERG cells, tail current); format: cell-based; settings: inhibition of tail current, read-out: inhibitory activity (IC50) against the cardiac hERG potassium channel
Chain of hERG potassium channel (Q12809 whole entry): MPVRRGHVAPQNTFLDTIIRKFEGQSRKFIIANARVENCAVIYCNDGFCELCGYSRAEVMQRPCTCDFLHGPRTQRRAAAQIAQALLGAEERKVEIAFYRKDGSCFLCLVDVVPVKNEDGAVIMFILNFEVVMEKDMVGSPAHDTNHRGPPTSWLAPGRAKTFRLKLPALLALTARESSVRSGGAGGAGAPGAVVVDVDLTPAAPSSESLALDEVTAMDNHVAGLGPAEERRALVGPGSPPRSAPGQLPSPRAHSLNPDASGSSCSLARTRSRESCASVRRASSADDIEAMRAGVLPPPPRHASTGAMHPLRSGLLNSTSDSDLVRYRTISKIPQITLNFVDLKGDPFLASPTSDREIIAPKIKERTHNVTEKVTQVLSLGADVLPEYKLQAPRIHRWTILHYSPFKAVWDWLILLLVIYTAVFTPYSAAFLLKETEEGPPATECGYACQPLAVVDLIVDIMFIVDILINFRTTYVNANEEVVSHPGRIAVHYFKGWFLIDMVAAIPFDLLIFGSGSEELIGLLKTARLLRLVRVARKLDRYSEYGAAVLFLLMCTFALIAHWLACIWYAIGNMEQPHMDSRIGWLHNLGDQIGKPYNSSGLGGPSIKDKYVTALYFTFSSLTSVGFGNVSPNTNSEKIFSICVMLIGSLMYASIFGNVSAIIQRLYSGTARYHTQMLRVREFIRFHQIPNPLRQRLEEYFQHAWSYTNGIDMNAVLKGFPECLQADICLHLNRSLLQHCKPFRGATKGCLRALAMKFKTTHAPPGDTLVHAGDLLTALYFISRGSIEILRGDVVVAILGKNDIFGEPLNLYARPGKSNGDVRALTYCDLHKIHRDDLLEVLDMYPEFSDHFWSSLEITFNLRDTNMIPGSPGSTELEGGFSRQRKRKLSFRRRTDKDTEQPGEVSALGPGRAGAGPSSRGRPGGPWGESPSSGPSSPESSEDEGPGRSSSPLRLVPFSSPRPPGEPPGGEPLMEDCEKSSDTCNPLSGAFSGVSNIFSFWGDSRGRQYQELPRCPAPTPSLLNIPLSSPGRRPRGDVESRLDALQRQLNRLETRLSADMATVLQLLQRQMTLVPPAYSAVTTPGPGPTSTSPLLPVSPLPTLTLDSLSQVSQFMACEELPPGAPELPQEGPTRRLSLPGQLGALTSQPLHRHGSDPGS
Source text: Test Example 5: hERG potassium channel inhibitory activity assay
1 Study objective: The objective of this test example is to determine the inhibitory effect of the compound on the hERG potassium channel activity. 2 Experimental instruments and reagents: 2.1 Reagents
3. Experimental method • 3.1 Cell culture: The CHO cells stably expressing the hERG potassium channel (CHO-hERG) used in the experiment were obtained from Sophion Bioscience (Ballerup, Denmark), and passaged and cryopreserved at WuXi AppTec Co., Ltd. in Shanghai. The CHO-hERG cells were cultured and passaged in Ham's F-12 medium containing 1 × GlutaMAX, 10% foetal bovine serum, 100 µg/mL G418 and 100 µg/mL hygromycin B at 37°C with 5% CO2. • 3.2 Preparation of intracellular and extracellular solutions: The extracellular solution was prepared once a month, and aliquoted and stored in 1 L storage bottles. The intracellular solution was prepared once every three months, and aliquoted and cryopreserved at -20°C. The intracellular solution was thawed in a 37°C water bath before the experiment and then placed in an ice bath for later use. • 3.3 Preparation of compounds: The positive control drug amitriptyline hydrochloride and the compounds were dissolved in 100% DMSO (Sigma-Aldrich, D2650) to prepare 10 mM or 30 mM stock solutions. Before the experiment, the stock solutions of the test compounds were diluted with DMSO to prepare solutions 1000-fold or 333-fold higher than the desired test concentrations, and then further diluted 1000-fold or 333-fold with the extracellular solution to achieve the desired concentrations. • 3.4 Cell preparation: The CHO-hERG cells used in the experiment were cultured for at least two days. When the cell density reached more than 75%, the cells were digested with TrypLE, then resuspended in the extracellular solution, and centrifuged. The supernatant was discarded, and then the cells were further resuspended in 2 mL of extracellular solution for later use. • 3.4 Experimental data processing: In data processing, the peak tail current was baseline-corrected when evaluating the hERG blocking effect. The effect of each compound at various concentrations was expressed as the inhibition rate of the tail current. IC50 values were obtained by fitting the data to the Hill equation: I/Icontrol =Bottom + (Top-Bottom)/(1+10^((LogIC50-X) * HillSlope)) • Top: maximum effect; Bottom: minimum effect; Hillslope: slope; X: concentration of the test compound. • IC50: half-maximal inhibitory concentration of the test compound on hERG.

[2] = molecular target: T1, PRMT5/MEP50-MTA protein complex (Homo sapiens, UniProt O14744); assay: Thermal shift assay: thermal stability (melting temperature) of PRMT5/MEP50-MTA protein complex; format: binding; settings: final compound concentration 8 µM; 2 µM PRMT5/MEP50, 2 µM MTA; Tm minus Tm of DMSO vehicle control
T1 construct: purchased Viva Biotech
T1 sequence (O14744 whole entry): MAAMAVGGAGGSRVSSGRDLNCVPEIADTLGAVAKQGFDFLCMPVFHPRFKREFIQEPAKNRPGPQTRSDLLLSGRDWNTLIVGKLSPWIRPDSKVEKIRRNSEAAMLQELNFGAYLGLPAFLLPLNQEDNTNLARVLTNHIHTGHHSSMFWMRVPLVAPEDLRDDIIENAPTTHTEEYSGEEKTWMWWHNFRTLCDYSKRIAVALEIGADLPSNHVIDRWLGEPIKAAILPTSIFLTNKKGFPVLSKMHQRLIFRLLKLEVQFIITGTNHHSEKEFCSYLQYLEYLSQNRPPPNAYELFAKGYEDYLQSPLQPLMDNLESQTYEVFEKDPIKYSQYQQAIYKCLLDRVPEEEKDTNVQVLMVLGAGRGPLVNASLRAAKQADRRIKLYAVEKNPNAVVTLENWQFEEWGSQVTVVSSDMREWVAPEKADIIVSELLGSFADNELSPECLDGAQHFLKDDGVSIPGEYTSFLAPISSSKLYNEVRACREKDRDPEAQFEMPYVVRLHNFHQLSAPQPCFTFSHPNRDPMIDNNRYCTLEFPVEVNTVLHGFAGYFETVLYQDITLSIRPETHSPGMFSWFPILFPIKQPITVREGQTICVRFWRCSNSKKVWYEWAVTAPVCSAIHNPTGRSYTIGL
T1 sequence (Q9BQA1 whole entry partner): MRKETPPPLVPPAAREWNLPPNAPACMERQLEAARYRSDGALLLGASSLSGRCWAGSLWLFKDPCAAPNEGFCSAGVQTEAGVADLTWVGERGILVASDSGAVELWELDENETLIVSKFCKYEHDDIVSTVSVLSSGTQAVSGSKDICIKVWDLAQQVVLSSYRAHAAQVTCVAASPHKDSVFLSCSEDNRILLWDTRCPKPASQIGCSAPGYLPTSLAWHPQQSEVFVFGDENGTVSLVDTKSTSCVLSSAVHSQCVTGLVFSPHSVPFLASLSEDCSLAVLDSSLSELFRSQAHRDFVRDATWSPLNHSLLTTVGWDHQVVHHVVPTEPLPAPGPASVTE
Summary of the method: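 Human PRMT5/MEP50 (2 µM) was preincubated 30 min with 2 µM MTA in 50 mM HEPES, 10 mM DTT, 250 mM NaCl with SYPRO Orange. Compound at 8 µM final (2.5% DMSO vehicle) was added for 10 minutes, then samples were heated 25°C to 95°C at 0.03°C/s. Tm was derived from the melt curve.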

[3] = Pharmacokinetics in rats (plasma) after oral administration; format: in vivo; settings: SD rats, p.o. 5 mg/kg
Description: Test Example 4: Determination of the pharmacokinetics of the compounds of the present invention in rats (plasma) after oral administration.
1 Study objective: SD rats were used as test animals to study the pharmacokinetic behaviour of the following example compounds in rats (plasma) after oral administration at a dose of 5 mg/kg. 2 Test scheme • 2.1 Test drugs: Vehicle formula: 0.5% CMC-Na (1% Tween 80); the examples of the present invention, made in house. • 2.2 Test animals: 3 SD rats per group, male, purchased from Shanghai Bikai Keyi Biotechnology Co., Ltd., with animal license number (SCXK (Shanghai) 2018-0006, No.20180006037467). • 2.3 Administration: 3 SD rats per group, male, were fasted overnight and then respectively administered PO at a dose of 5 mg/kg and a volume of 10 mL/kg. • 2.4 Sample collection: 0.2 mL of blood was collected from the jugular vein of rats before administration and at 0, 0.25, 0.5, 1, 2, 4, 6, 8 and 24 h after administration, and placed in EDTA-K2test tubes, and the test tubes were centrifuged at 6,000 rpm at 4°C for 6 min to separate the plasma, which was stored at -80°C. The animals were fed 4 h after administration. • 2.5 Sample treatment • 1) 160 uL of acetonitrile was added to 40 uL of plasma sample for precipitation, and after mixing, the mixture was centrifuged at 3,500 × g for 5-20 minutes. • 2) 100 uL of the treated supernatant solution was taken for LC/MS/MS analysis to determine the concentration of the test compounds. • 2.6 Liquid phase analysis • Liquid phase conditions: Shimadzu LC-20AD pump;mass spectrometry conditions: AB Sciex API 4000 mass spectrometer • Chromatographic column: Phenomenex Gemiu 5 um C18 50 × 4.6 mm • Mobile phase: solution A: 0.1% formic acid in water, solution B: methanol • Flow rate: 1.0 mL/min, elution time: 0-4.0 min, with eluents as follows:
Experimental results and analysis: The main pharmacokinetic parameters were calculated using WinNonlin 8.2.

[4] = Homo sapiens, HCT-116, read-out: HCT116 IC50
[5] = Homo sapiens, HCT-116, read-out: MTAP Knockout HCT116 IC50

| Compound | Selectivity [1] | IC50 (hERG potassium channel) | ΔTm at 8 µM [2] | IC50 (HCT116 wild-type cells; [4]) | IC50 [1, 5] | also measured |
| --- | --- | --- | --- | --- | --- | --- |
| Nc1nc2cc3c(cc2n2cncc12)C(=O)N(Cc1ccc(C(F)(F)F)cn1)CCCOC3 [Example 176, 4-Amino-12-((5-(trifluoromethyl)pyridin-2-yl)methyl)-9,10,11,12-tetrahydroimidazo[1,5-a][1,5]oxazonino[8,7-g]quinoxalin-13(7H)-one] | 62 | > 30000 nM | 11.5 °C | – | – | IC50 (HCT116 wild-type cells; Homo sapiens, HCT-116, HCT116 wild-type cells, proliferation inhibition, Cell Titer-Glo, read-out: HCT116 IC50): 946 nM; IC50 ([1]; Homo sapiens, HCT-116, MTAP Knockout HCT116 cells, proliferation inhibition, Cell Titer-Glo, read-out: MTAP Knockout HCT116 IC50): 15 nM |
| Nc1nc2cc3c(cc2c2c1COC2)C(=O)N(Cc1ccc(C(F)(F)F)cn1)CCCOC3 [Example 178, 4-Amino-12-((5-(trifluoromethyl)pyridin-2-yl)methyl)-3,7,9,10,11,12-hexahydrofuro[3,4-c][1,5]oxazolino[7,8-g]quinolin-13(1H)-one] | 131 | > 30000 nM | 11.2 °C | 2380 nM | 18 nM | AUC(0-inf) ([3]; rat, po): 2790 ng·h/mL; half-life ([3]; rat, po): 1.9 h; Cmax ([3]; rat, po, read-out: Cmax): 544 ng/mL; MRT inf ([3]; rat, po, read-out: MRT0-∞): 3.7 h; Tmax ([3]; rat, po, read-out: tmax): 1.7 h |
| Nc1nc2cc3c(cc2n2cncc12)C(=O)N(Cc1ccc(-c2c(F)cccc2F)cn1)CCCOC3 [Example 298, 4-Amino-12-((5-(2,6-difluorophenyl)pyridin-2-yl)methyl)-9,10,11,12-tetrahydroimidazo[1,5-a][1,5]oxazolo[8,7-g]quinoxalin-13(7H)-one] | 81 | > 30000 nM | 12.5 °C | 219 nM | 2.7 nM | – |
| Nc1nc2cc3c(cc2n2cncc12)C(=O)N(Cc1ccc(C(F)(F)F)cn1)CCCCOC3 [Example 417, 4-Amino-13-((5-(trifluoromethyl)pyridin-2-yl)methyl)-10,11,12,13-tetrahydro-7H-imidazo [1,5-a][1,6] oxazino [3,4-g] quinoxalin-14(9H)-one] | 346 | > 30000 nM | 11.1 °C | 3800 nM | 11 nM | – |
| (Z)-4-Amino-12-((5-(trifluoromethyl)pyridin-2-yl)methyl)-9,10,11,12-tetrahydro-13H-azonino[4,3-g]imidazo[1,5-a]quinoxalin-13-one [Example 171] | 90 | – | – | – | – | IC50 (HCT116 wild-type cells; HCT116 wild-type cells, proliferation inhibition, Cell Titer-Glo, read-out: HCT116 IC50): 236 nM; IC50 ([1]; MTAP Knockout HCT116 cells, proliferation inhibition, Cell Titer-Glo, read-out: MTAP Knockout HCT116 IC50): 2.6 nM; ΔTm (°C) [2]: 12.03 °C; AUC 0-∞ [3]: 1058 ng·h/mL; Cmax [3]: 283 ng/mL; MRT0-∞ [3]: 2.9 h; Tmax [3]: 1.0 h; t1/2 [3]: 1.6 h |
